In patent US20030229030A1, “Method of treating interleukin-6-mediated inflammatory diseases” (priority 2002, published 2003):
Where “and” joins values, the source holds several entries; their conditions need not be identical. Equal entries are not always repeated. Marks after values point to notes of the source that are not given here. Ends that are not written are not given here.

Tests used:
[1] = tested on: IL-6 secretion from hCBMC; experiment: IL-6 secretion from human cord blood-derived mast cells (hCBMC), ELISA; format: cell-based; details: for secretion of IL-6 (FIG. 3): n=4
Method: (§1) Human cord blood-derived mast cells (HCBMC) were grown from CD34+ progenitor mononuclear umbilical cells isolated from umbilical cord blood by positive selection of AC133 (CD 133+/CD34+high) cells by magnetic cell sorting (Miltenyi Biotec, Auburn, Calif.). CD34+ cells were then cultured in Isocove's Modified Dulbecco's Medium (1MDM) containing 100 ng/ml Stem Cell Factor (from Amgen, Thousand Oaks, Calif.) plus test components in 10% FBS at 37° C. in 5% CO2 balanced air. By 10 weeks, 95% of the cells in culture could be identified as mast cells by immuno-staining for tryptase. hCBMC were washed three times in PBS and resuspended in culture medium (1×10^5 cells/200 ul sample). Test substances, e.g., IL-1 were added and cells were incubated at 37° C. in 5% CO2 for six hours for dose-response experiments or for the indicated times in time-course experiments. IL-6 and tryptase were measured in cell-free supernatant fluids by ELISA (R&D Systems, Minneapolis, Minn.) and fluoroenzymeimmunoassay (Pharmacia, Uppsala, Sweden), respectively.
(§2) Dose-response of IL-6 and tryptase secretion from hCBMC and HMC-1 cells were tested after stimulation for six hours with indicated concentrations of IL-1 or other stimuli. Time-course of IL.6 production induced by 50 ng/ml of IL-1 a from CBMC or by 10 ng/ml IL-1 from HMC-1 cells could be tested.
The data in general represent means +/− standard error of the mean from 3 to 4 experiments done in duplicate for each cell type used.

[2] = tested on: IL-6 production from rat peritoneal macrophages; experiment: IL-6 production from LPS-stimulated rat peritoneal macrophages; format: cell-based; details: rat macrophages stimulated by LPS; quercetin dihydrate 100 μM, 10 mins prior to stimulus, 6 hrs
Text: (§3) In this experiment, the effect of quercetin on the production of IL-6 and TNF-a from rat peritoneal macrophages and human mast cells that are involved in inflammation was studied. [table]

[3] = tested on: IL-6 secretion from HMC-1 cells; experiment: IL-6 secretion from HMC-1 human leukemic mast cells; format: cell-based; details: quercetin 10 μM, IL-10 2 ng/ml
Method: Human leukemic mast cells (HMC-1) was obtained from Dr. Butterfield (Mayo Clinic, Rochester, Minn.), and cultured in IMDM medium supplemented with 10% FBS, PBS and 2 μM alpha.thioglycerol. HCBMC or HMC-I cells 2×10^5/200 μl sample were stimulated in full culture medium as indicated.
as §2
The effect of IL-10 on HMC-1 leukemic cells producing IL-6, especially cells stimulated by IL-1 that induces selective release of IL-6, was studied alone or together with a flavonoid compound.

[4] = tested on: TNF-α production from human mast cells (hCBMC); experiment: TNF-α production from hCBMC stimulated by IgE and anti-IgE; format: cell-based; details: quercetin dihydrate 100 μM, 10 mins prior to stimulus, 6 hrs
Text: as §3

[5] = tested on: IL-6 secretion from human mast cells; experiment: IL-6 production and secretion from human mast cells, quercetin alone or with IL-1; format: cell-based
Method: as §1
In this experiment, the effects of quercetin, alone or together with IL-1, on the production and secretion of IL-6 from human mast cells was studied.

[6] = tested on: TNF-α production from rat peritoneal macrophages; experiment: TNF-α production from LPS-stimulated rat peritoneal macrophages; format: cell-based; details: rat macrophages stimulated by LPS; quercetin dihydrate 100 μM, 10 mins prior to stimulus, 6 hrs
Text: as §3

[7] = tested on: tryptase secretion from hCBMC; experiment: Tryptase secretion from hCBMC mast cell granules, fluoroenzymeimmunoassay; format: cell-based, human; details: stimulus alone: CRH 5 × 10^−5M, IL-1 50 ng/ml, anti-IgE 10 μg/ml
Method: as §1
Dose-response of IL-6 and tryptase secretion from hCBMC and HMC-1 cells were tested after stimulation for six hours with indicated concentrations of IL-1 or other stimuli. Time-course of IL.6 production induced by 50 ng/ml of IL-1 a from CBMC or by 10 ng/ml IL-1 from HMC-1 cells could be tested. […]

[8] = hCBMC + anti-IgE, azelastine 1 μM, quercetin 10 μM
[9] = hCBMC, substance alone: anti-IgE, azelastine 1 μM, quercetin 10 μM
[10] = HMC-1, substance alone: IL-1 50 ng/ml
[11] = IL-1 50 ng/ml + quercetin 10 μM
[12] = IL-1 50 ng/ml + quercetin 100 μM

Molecule: O=c1c(O)c(-c2ccc(O)c(O)c2)oc2cc(O)cc(O)c12 [Quercetin, quercetin]
- IL-6 (pg/ml/5 × 105cells) [1, 8]: 21.4 pg/ml/5 × 105cells
- Inhibition (% total) [1, 8]: 32.9 % total
- secretion of IL-6 (FIG. 3) ([1]; hCBMC + anti-IgE, three lower concentrations of quercetin (1, 0.1, 0.01 μM)): only slightly reduced
- secretion of IL-6 (FIG. 3) ([1]; hCBMC + anti-IgE, two highest concentrations of quercetin (100, 10 μM)): greatly reduced
- Inhibition (% of total) IL-6 ([1]; hCBMC stimulated by IgE and anti-IgE, quercetin dihydrate 100 μM, 10 mins prior to stimulus, 6 hrs): 95.8 % of total
- secretion of IL-6 from mast cells stimulated by anti-IgE ([1]; hCBMC, 0.1 mM quercetin 30 mins, then anti-IgE 6 hrs, replicated 6 times): profoundly inhibited
- IL-6 (pg/10^6 cells) ([1]; hCBMC, quercetin 0.1 mM alone, no anti-IgE): 10.8 pg/10^6 cells
- IL-6 (pg/10^6 cells) ([1]; hCBMC, quercetin 0.1 mM for 10 mins prior to addition of anti-IgE): 50.5 pg/10^6 cells
- IL-6 (pg/ml/5 × 105cells) [1, 9]: 9.8 pg/ml/5 × 105cells
- Inhibition (% of total) IL-6 [2]: 96.3 % of total
- IL-6 (pg/ml/10^5 cells) ([3]; HMC-1 + IL-1 (50 ng/ml)): 299.0 pg/ml/10^5 cells
- Inhibition (% total) ([3]; HMC-1 + IL-1 (50 ng/ml)): 5.37 % total
- IL-6 (pg/ml/10^5 cells) [3, 10]: 79.8 pg/ml/10^5 cells
- Inhibition (% of total) TNF-α [4]: 78.3 % of total
- IL-6 (pg/ml/5 × 10^5 cells) [5, 11]: 300.1 pg/ml/5 × 10^5 cells
- Inhibition (% total) [5, 11]: 32.7* % total
- IL-6 (pg/ml/5 × 10^5 cells) [5, 12]: 150.4 pg/ml/5 × 10^5 cells
- Inhibition (% total) [5, 12]: 82.0* % total
- IL-6 (pg/ml/5 × 10^5 cells) ([5]; quercetin 10 μM alone): 74.9 pg/ml/5 × 10^5 cells
- IL-6 (pg/ml/5 × 10^5 cells) ([5]; quercetin 100 μM alone): 56.1 pg/ml/5 × 10^5 cells
- Inhibition (% of total) TNF-α [6]: 88.3 % of total

Molecule: CRH: corticotropin-releasing hormone (SEEPPISLDLTFHLLREVLEMARAEQLAQQAHSNRKLMEII; ends and bridges not checked; UniProt P06850 154-194, looked up)
- IL-6 (pg/ml/5 × 10^6 cells) ([1]; hCBMC, stimulus alone: CRH 5 × 10^−5M, IL-1 50 ng/ml, anti-IgE 10 μg/ml): 33.3 +/− 3.5 pg/ml/5 × 10^6 cells
- Tryptase % total [7]: 4.20 % total and 4.26 % total

Molecule: O=c1c(O)c(-c2ccc(O)cc2O)oc2cc(O)cc(O)c12 [Morin, reference compound]
- secretion of IL-6 (FIG. 3) ([1]; hCBMC + anti-IgE, morin (100-0.01 μM listed)): only a small effect

Molecule: CN1CCCC(n2nc(Cc3ccc(Cl)cc3)c3ccccc3c2=O)CC1 (centres unmarked) [Azelastine, reference compound]
- inhibition of IL-6 secretion from hCBMC ([1]; azelastine at concentrations below 1 μM): ineffective
- IL-6 (pg/ml/5 × 105cells) [1, 8]: 30.6 pg/ml/5 × 105cells
- inhibition of IL-6 secretion from hCBMC (FIG. 4) ([1]; hCBMC + anti-IgE, dose-dependent): potent inhibitor
- IL-6 secretion (FIG. 4) ([1]; hCBMC, azelastine 60 μM): below control levels
- IL-6 (pg/ml/5 × 105cells) [1, 9]: 11.9 pg/ml/5 × 105cells

B1: IL-10: interleukin-10 (protein, UniProt P22301 19-178, looked up)
Interleukin-10: SPGQGTQSENSCTHFPGNLPNMLRDLRDAFSRVKTFFQMKDQLDNLLLKESLLEDFKGYLGCQALSEMIQFYLEEVMPQAENQDPDIKAHVNSLGENLKTLRLRLRRCHRFLPCENKSKAVEQVKNAFNKLQEKGIYKAMSEFDIFINYIEAYMTMKIRN
- IL-6 (pg/ml/10^5 cells) ([3]; HMC-1 + IL-1 (50 ng/ml)): 275.9 pg/ml/10^5 cells
- Inhibition (% total) ([3]; HMC-1 + IL-1 (50 ng/ml)): 31.32 % total
- IL-6 (pg/ml/10^5 cells) [3, 10]: 85.6 pg/ml/10^5 cells
